Assay results reported in patent US5425942A, “Polyfunctinal protease” (Otsuka Pharamceutical Co., Ltd., priority 1988, dated 1995).
Several values for one entry are separate records, joined by “and”; a condition that tells them apart may be missing. Equal entries are not always repeated. Where two headings read alike, the source gives them in different places.

Molecular target: T1, human proteasome (Homo sapiens, UniProt P28072+P28074+Q99436)
T1 construct: The desired homogeneous human proteasome was thus recovered in the fraction at about 340 mM KCl; from tissue
Assay: Activity inhibition of human proteasome by protease inhibitors
Format: biochemical

| Inhibition Rate (%) by Inhibitor (substrate Cbz-Ala-Arg-Arg-MNA, inhibitor 50 μg/ml, 2 μg proteasome, room temperature, one hour, optimal pH) | Inhibition Rate (%) by Inhibitor (substrate Cbz-Leu-Leu-Glu-NA, inhibitor 50 μg/ml, 2 μg proteasome, room temperature, one hour, optimal pH) | Inhibition Rate (%) by Inhibitor (substrate Suc-Leu-Leu-Val-Tyr-MCA, inhibitor 50 μg/ml, 2 μg proteasome, room temperature, one hour, optimal pH) | Compound | Inhibition Rate (%) by Inhibitor | inhibition at 10000 µM (read-out: Inhibition Rate (%) by Inhibitor) |
| --- | --- | --- | --- | --- | --- |
|  |  |  | CCN1C(=O)C=CC1=O [C, N-ethylmaleimide] | 96% and 99% | 88% |
| 19% | 0% | 75% | Chymostatin [B] |  |  |
